Measured values published in US20040254162A1, “Oxazolidinone derivatives as antimicrobials” (priority 2001, published 2004).
Converted amounts (≈) assume the structure as drawn. “And” between values parts separate entries of the source, which are not always exact repeats. Identical values can stand only once. Like-named read-outs stand apart in the source and are kept apart here.

Legend:
Clostridium difficile = experiment: Agar dilution MIC, anaerobes; format: cell-based; details: single isolates, anaerobic agar dilution; for MIC: Clostridioides difficile, read-out: MIC Clostridium difficile
anaerobic bacteria = experiment: Agar dilution method for anaerobic bacteria, summary; format: cell-based
Porphyromonas gingivalis = experiment: Agar dilution MIC, anaerobes; format: cell-based; details: Porphyromonas gingivalis; single isolate, anaerobic agar dilution; read-out: MIC Porphyromonas gingivalis
[1] = test system: Prevotella (Bacteroides) disiens; experiment: Agar dilution MIC, anaerobes; format: cell-based; details: single isolates, anaerobic agar dilution; for MIC: read-out: MIC Prevotella (Bacteroides) disiens
Fusobacterium nucleatum = experiment: Agar dilution MIC, anaerobes; format: cell-based; details: single isolates, anaerobic agar dilution
Bacteroides fragilis = experiment: Agar dilution MIC, anaerobes; format: cell-based; details: Bacteroides fragilis, single isolates, anaerobic agar dilution; read-out: MIC Bacteroides fragilis
Eubacterium leutum = experiment: Agar dilution MIC, anaerobes; format: cell-based; details: single isolates, anaerobic agar dilution
Prevotella bivia = experiment: Agar dilution MIC, anaerobes; format: cell-based; details: Prevotella bivia; single isolate, anaerobic agar dilution; read-out: MIC Prevotella bivia
Fusobacterium necrogenes = experiment: Agar dilution MIC, anaerobes; format: cell-based; details: Fusobacterium necrogenes; single isolate, anaerobic agar dilution; read-out: MIC Fusobacterium necrogenes
Fusobacterium montiferum = experiment: Agar dilution MIC, anaerobes; format: cell-based; details: single isolates, anaerobic agar dilution
P. acnes = experiment: Agar dilution MIC, anaerobes; format: cell-based; details: single isolates, anaerobic agar dilution; for MIC: Cutibacterium acnes, read-out: MIC P. acnes
[2] = test system: Peptostreptococcus tetradius; experiment: Agar dilution MIC, anaerobes; format: cell-based; details: single isolates, anaerobic agar dilution
[3] = test system: Porphyromonas asaccharolytica; experiment: Agar dilution MIC, anaerobes; format: cell-based; details: Porphyromonas asaccharolytica; single isolate, anaerobic agar dilution; read-out: MIC Porphyromonas asaccharolytica
Clostridium camis = experiment: Agar dilution MIC, anaerobes; format: cell-based; details: Clostridium; single isolates, anaerobic agar dilution; read-out: MIC Clostridium camis
Prevotella intermedia = experiment: Agar dilution MIC, anaerobes; format: cell-based; details: Prevotella intermedia, single isolates, anaerobic agar dilution; read-out: MIC Prevotella intermedia
Clostridium perfringens = experiment: microbe, parasite or virus in culture; format: cell-based; details: for MIC: Clostridium perfringens, read-out: MIC Clostridium perfringens, single isolates, anaerobic agar dilution
[4] = test system: Peptostreptococcus prevotii; experiment: Agar dilution MIC, anaerobes; format: cell-based; details: single isolates, anaerobic agar dilution; for MIC: Anaerococcus prevotii, read-out: MIC Peptostreptococcus prevotii
S. pneumoniae = experiment: Summary of in vitro activity (MIC); details: S. pneumoniae; for MIC50 / MIC90: Number 19
VRE 6A (Ent. faecium 6A) = experiment: MIC, agar incorporation method; details: agar incorporation
S. pneum AB 34 = experiment: MIC, agar incorporation method; details: agar incorporation
S. aureus = experiment: Summary of in vitro activity (MIC); details: S. aureus; for MIC50 / MIC90: Number 8
MRSA 562 [5] = experiment: In vivo activity against MRSA 562 (ED50); design: species or system Methicillin Resistant Staphylococcus aureus; details: PO; MRSA 562 infection
E. faecalis = experiment: Summary of in vitro activity (MIC); details: E. faecalis; for MIC50 / MIC90: Number 7
Strep. pne. ATCC 6303 = experiment: MIC, agar incorporation method; details: agar incorporation
S. aureus ATCC 25923 = experiment: MIC, agar incorporation method; details: agar incorporation
MRSA 15187 = experiment: MIC, agar incorporation method; details: agar incorporation
Ent. faecalis ATCC 29212 = experiment: MIC, agar incorporation method; details: agar incorporation
Strep. pyog. ATCC 19615 = experiment: MIC, agar incorporation method; details: agar incorporation
MRSA 33 = experiment: MIC, agar incorporation method; details: agar incorporation
G +ve bacteria = experiment: Summary of in vitro activity (MIC); details: for MIC50 / MIC90: G +ve, Number 49; for Geometric Mean of in vitro activity (MIC): Gram + ve
MRSA 562 [6] = experiment: MIC, agar incorporation method; details: for MIC: MRSA 562, Table 5
[7] = test system: Prevotella melaninogenica; experiment: Agar dilution MIC, anaerobes; format: cell-based; details: Prevotella melaninogenica, single isolates, anaerobic agar dilution; read-out: MIC Prevotella melaninogenica

Structure (SMILES): COc1c(N2CCNC(C)C2)c(F)cc2c(=O)c(C(=O)O)cn(C3CC3)c12 (stereo not drawn) [Gatifloxacin]
- MIC (Clostridium difficile): 1 µg/mL (≈ 2.66 µM)
- MIC Clostridium difficile (Clostridium difficile): 2 µg/mL (≈ 5.33 µM)
- Geometric Mean (anaerobic bacteria; anaerobes): 0.659 µg/mL
- MIC Range (anaerobic bacteria; anaerobes): 0.06 to 32 µg/mL
- MIC50 (anaerobic bacteria; anaerobes, Wilkins Chalgren agar, 48 hour, read-out: MIC50): 0.5 µg/mL (≈ 1.33 µM)
- MIC90 (anaerobic bacteria; anaerobes, Wilkins Chalgren agar, 48 hour, read-out: MIC90): 2 µg/mL (≈ 5.33 µM)
- MIC (Porphyromonas gingivalis): 0.06 µg/mL (≈ 0.16 µM)
- MIC [1]: 1 µg/mL (≈ 2.66 µM)
- MIC (Fusobacterium nucleatum; Fusobacterium nucleatum, read-out: MIC Fusobacterium nucleatum): 0.25 µg/mL (≈ 0.666 µM)
- MIC Fusobacterium nucleatum (Fusobacterium nucleatum): 0.5 µg/mL (≈ 1.33 µM)
- MIC (Bacteroides fragilis): 1 µg/mL (≈ 2.66 µM)
- MIC (Eubacterium leutum; Eubacterium, read-out: MIC Eubacterium leutum): 0.25 µg/mL (≈ 0.666 µM)
- MIC Eubacterium leutum (Eubacterium leutum): 0.5 µg/mL (≈ 1.33 µM)
- MIC (Prevotella bivia): 2 µg/mL (≈ 5.33 µM)
- MIC (Fusobacterium necrogenes): 0.5 µg/mL (≈ 1.33 µM)
- MIC (Fusobacterium montiferum; Fusobacterium, read-out: MIC Fusobacterium montiferum): 0.25 µg/mL (≈ 0.666 µM)
- MIC Fusobacterium montiferum (Fusobacterium montiferum): 0.5 µg/mL (≈ 1.33 µM)
- MIC (P. acnes): 0.25 µg/mL (≈ 0.666 µM)
- MIC P. acnes (P. acnes): 0.125 µg/mL (≈ 0.333 µM)
- MIC ([2]; Anaerococcus tetradius, read-out: MIC Peptostreptococcus tetradius): 1 µg/mL (≈ 2.66 µM)
- MIC Peptostreptococcus tetradius [2]: 0.5 µg/mL (≈ 1.33 µM)
- MIC [3]: 0.25 µg/mL (≈ 0.666 µM)
- MIC (Clostridium camis): 0.25 µg/mL (≈ 0.666 µM)
- MIC (Prevotella intermedia): 0.25 µg/mL (≈ 0.666 µM)
- MIC (Clostridium perfringens): 1 µg/mL (≈ 2.66 µM)
- MIC [4]: 0.5 µg/mL (≈ 1.33 µM)
- MIC Peptostreptococcus prevotii [4]: 1 µg/mL (≈ 2.66 µM)

Structure (SMILES): CC(=O)NC[C@H]1CN(c2ccc(N3CCN(Cc4ccc([N+](=O)[O-])o4)CC3)c(F)c2)C(=O)O1 [Compound No. 15, (S)-N-[[3-[3-fluoro-4-[N-1-[4-{2-furyl-(5-nitro)methyl}]piperazinyl]phenyl]-2-oxo-5-oxazolidinyl]methyl]acetamide]
- Geometric Mean of in vitro activity (MIC) (S. pneumoniae): 1.04 µg/mL
- MIC50 (S. pneumoniae): 2 µg/mL (≈ 4.33 µM)
- MIC90 (S. pneumoniae): 4 µg/mL (≈ 8.67 µM)
- MIC VRE 6A (VRE 6A (Ent. faecium 6A)): 1 µg/mL (≈ 2.17 µM)
- MIC S. pneum AB 34 (S. pneum AB 34): 2 µg/mL (≈ 4.33 µM)
- Geometric Mean of in vitro activity (MIC) (S. aureus): 1.63 µg/mL
- MIC50 (S. aureus): 2 µg/mL (≈ 4.33 µM)
- MIC90 (S. aureus): 2 µg/mL (≈ 4.33 µM)
- ED50 (mg/kg body weight) PO (MRSA 562 [5]): 4.33 mg/kg body weight
- Geometric Mean of in vitro activity (MIC) (E. faecalis): 1.6 µg/mL
- MIC50 (E. faecalis): 2 µg/mL (≈ 4.33 µM)
- MIC90 (E. faecalis): 2 µg/mL (≈ 4.33 µM)
- MIC S. pneum 6303 (Strep. pne. ATCC 6303): 1 µg/mL (≈ 2.17 µM)
- MIC S. aureus 25923 (S. aureus ATCC 25923): 2 µg/mL (≈ 4.33 µM)
- MIC MRSA 15187 (MRSA 15187): 2 µg/mL (≈ 4.33 µM)
- MIC E. faecalis 29212 (Ent. faecalis ATCC 29212): 2 µg/mL (≈ 4.33 µM)
- MIC S. pyogenes 19615 (Strep. pyog. ATCC 19615): 1 µg/mL (≈ 2.17 µM)
- MIC MRSA 33 (MRSA 33): 2 µg/mL (≈ 4.33 µM)
- MIC50 (G +ve bacteria): 1 µg/mL (≈ 2.17 µM)
- MIC90 (G +ve bacteria): 2 µg/mL (≈ 4.33 µM)
- Geometric Mean of in vitro activity (MIC) (G +ve bacteria): 1.08 µg/mL
- MIC (MRSA 562 [6]): 2 µg/mL (≈ 4.33 µM)
- MIC MRSA 562 (MRSA 562 [6]; agar incorporation, Table 1): 2 µg/mL (≈ 4.33 µM)

Structure (SMILES): CC(=O)NC[C@H]1CN(c2ccc(N3CCN(C(=O)c4ccc([N+](=O)[O-])o4)CC3)c(F)c2)C(=O)O1 [Compound No. 06, (S)-N-[[3-Fluoro-4-[N-1[4-(5-nitro-2-furoyl)piperazinyl]phenyl]-2-oxo-5-oxazolidinyl]methyl]acetamide]
- Geometric Mean of in vitro activity (MIC) (S. pneumoniae): 1.27 µg/mL
- MIC50 (S. pneumoniae): 2 µg/mL (≈ 4.21 µM)
- MIC90 (S. pneumoniae): 2 µg/mL (≈ 4.21 µM)
- MIC VRE 6A (VRE 6A (Ent. faecium 6A)): 1 µg/mL (≈ 2.1 µM)
- MIC S. pneum AB 34 (S. pneum AB 34): 2 µg/mL (≈ 4.21 µM)
- Geometric Mean of in vitro activity (MIC) (S. aureus): 0.74 µg/mL
- MIC50 (S. aureus): 1 µg/mL (≈ 2.1 µM)
- MIC90 (S. aureus): 1 µg/mL (≈ 2.1 µM)
- ED50 (mg/kg body weight) PO (MRSA 562 [5]): >25 mg/kg body weight
- Geometric Mean of in vitro activity (MIC) (E. faecalis): 0.92 µg/mL
- MIC50 (E. faecalis): 1 µg/mL (≈ 2.1 µM)
- MIC90 (E. faecalis): 1 µg/mL (≈ 2.1 µM)
- MIC S. pneum 6303 (Strep. pne. ATCC 6303): 2 µg/mL (≈ 4.21 µM)
- MIC S. aureus 25923 (S. aureus ATCC 25923): 1 µg/mL (≈ 2.1 µM)
- MIC MRSA 15187 (MRSA 15187): 0.5 µg/mL (≈ 1.05 µM)
- MIC E. faecalis 29212 (Ent. faecalis ATCC 29212): 1 µg/mL (≈ 2.1 µM)
- MIC S. pyogenes 19615 (Strep. pyog. ATCC 19615): 2 µg/mL (≈ 4.21 µM)
- MIC MRSA 33 (MRSA 33): 0.5 µg/mL (≈ 1.05 µM)
- MIC50 (G +ve bacteria): 1 µg/mL (≈ 2.1 µM)
- MIC90 (G +ve bacteria): 2 µg/mL (≈ 4.21 µM)
- Geometric Mean of in vitro activity (MIC) (G +ve bacteria): 0.79 µg/mL
- MIC (MRSA 562 [6]): 1 µg/mL (≈ 2.1 µM)

Structure (SMILES): CC(=O)NC[C@H]1CN(c2ccc(N3CC4C(C3)C4N(C)C(=O)Cc3cccs3)c(F)c2)C(=O)O1 (stereo partly drawn) [Compound No. 71, (S)-N-[[3-[3-Fluoro[4-[3-(1α,5α,6α)-6-[N-(2-thiopheneacetyl)-N-methyl]amino]-3-azabicyclo-[3.1.0]hexane]phenyl]-2-oxo-5-oxazolidinyl]methyl]acetamide]
- MIC VRE 6A (VRE 6A (Ent. faecium 6A)): 8 µg/mL and 4 µg/mL
- MIC S. pneum AB 34 (S. pneum AB 34): 2 µg/mL and 4 µg/mL
- ED50 (mg/kg body weight) PO (MRSA 562 [5]): >25 mg/kg body weight
- MIC S. pneum 6303 (Strep. pne. ATCC 6303): 4 µg/mL (≈ 8.22 µM)
- MIC S. aureus 25923 (S. aureus ATCC 25923): 8 µg/mL and 4 µg/mL
- MIC MRSA 15187 (MRSA 15187): 8 µg/mL and 4 µg/mL
- MIC E. faecalis 29212 (Ent. faecalis ATCC 29212): 8 µg/mL and 4 µg/mL
- MIC S. pyogenes 19615 (Strep. pyog. ATCC 19615): 4 µg/mL and 2 µg/mL
- MIC MRSA 33 (MRSA 33): 8 µg/mL and 4 µg/mL
- MIC (MRSA 562 [6]): 4 µg/mL (≈ 8.22 µM)

Structure (SMILES): CCC[C@@H]1C[C@@H](C(=O)N[C@@H]([C@H]2O[C@H](SC)[C@H](O)[C@@H](O)[C@H]2O)[C@H](C)Cl)N(C)C1 [Clindamycin]
- MIC (Clostridium difficile): 2 µg/mL (≈ 4.71 µM)
- MIC Clostridium difficile (Clostridium difficile): 4 µg/mL (≈ 9.41 µM)
- MIC50 (anaerobic bacteria; 48 h): 0.125 µg/mL (≈ 0.294 µM)
- MIC90 (anaerobic bacteria; 48 h): 8 µg/mL (≈ 18.8 µM)
- Geometric Mean (anaerobic bacteria; anaerobes): 0.208 µg/mL
- MIC Range (anaerobic bacteria; anaerobes): 0.008 to 64 µg/mL
- MIC (Porphyromonas gingivalis): ≤ 0.016 µg/mL
- MIC Prevotella (Bacteroides) disiens [1]: 4 µg/mL (≈ 9.41 µM)
- MIC [1]: 8 µg/mL (≈ 18.8 µM)
- MIC [7]: ≤ 0.016 µg/mL
- MIC (Prevotella bivia): > 32 µg/mL
- MIC (Fusobacterium necrogenes): 0.03 µg/mL (≈ 0.0706 µM)
- MIC (P. acnes): 0.06 µg/mL (≈ 0.141 µM)
- MIC [3]: ≤ 0.016 µg/mL
- MIC (Clostridium camis): 0.03 µg/mL (≈ 0.0706 µM)
- MIC (Prevotella intermedia): ≤ 0.016 µg/mL
- MIC (Clostridium perfringens): 1 µg/mL (≈ 2.35 µM)
- MIC Clostridium perfringens (Clostridium perfringens; single isolates, anaerobic agar dilution): 0.5 µg/mL (≈ 1.18 µM)
- MIC [4]: 0.25 µg/mL (≈ 0.588 µM)
- MIC Peptostreptococcus prevotii [4]: 0.125 µg/mL (≈ 0.294 µM)
